Experimental data from paper PMC10120310 (Cell Insight, 2022).

Legend:
H1N1 virus = experiment: microbe, parasite or virus in culture; type: cell-based; conditions: Influenza A virus, H1N1, MDCK
in vitro = conditions: dog
influenza NA protein = influenza NA protein (Influenza A virus, UniProt P03470); type: cell-based, influenza virus (WSN)
Chain of influenza NA protein (P03470 whole entry, looked up): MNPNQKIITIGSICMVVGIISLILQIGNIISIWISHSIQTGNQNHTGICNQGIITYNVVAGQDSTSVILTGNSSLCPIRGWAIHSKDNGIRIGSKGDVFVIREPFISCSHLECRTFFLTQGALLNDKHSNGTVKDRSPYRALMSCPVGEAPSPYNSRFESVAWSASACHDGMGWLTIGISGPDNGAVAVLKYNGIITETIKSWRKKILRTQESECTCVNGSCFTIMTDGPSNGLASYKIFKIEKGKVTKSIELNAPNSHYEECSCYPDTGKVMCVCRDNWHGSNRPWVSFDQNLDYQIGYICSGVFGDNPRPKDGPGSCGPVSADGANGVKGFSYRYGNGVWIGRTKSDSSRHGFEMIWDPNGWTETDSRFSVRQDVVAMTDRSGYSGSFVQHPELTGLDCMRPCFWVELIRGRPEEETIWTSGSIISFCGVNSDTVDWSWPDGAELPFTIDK

## CCOC(=O)C1=C[C@@H](OC(CC)CC)[C@H](NC(C)=O)[C@@H](N)C1 [OSP, oseltamivir phosphate]
H1N1 virus
  EC50: 360 nM
In vitro
  CC50: > 50 µM
Influenza NA protein
  NA protein degradation: no degradation activity
